Here are results for 25 compounds from US12234236B1, “GLP-1R agonist and therapeutic method thereof” (Ascletis Pharma (China) Co., Limited, priority 2023, dated 2025).

For orientation: EC50 means the concentration at which the effect is half-maximal. Low readings indicate greater potency, high ones weaker potency. A word on the Cmax: it is the highest concentration seen after dosing.

For one data set, the target named is T1, hGLP-1R (Homo sapiens, UniProt P43220).
T1 construct: expressed in transfected cells; host or cells: Flp-In-293 (HEK293-derived) cells carrying GLP1R
T1 sequence (P43220 24-463): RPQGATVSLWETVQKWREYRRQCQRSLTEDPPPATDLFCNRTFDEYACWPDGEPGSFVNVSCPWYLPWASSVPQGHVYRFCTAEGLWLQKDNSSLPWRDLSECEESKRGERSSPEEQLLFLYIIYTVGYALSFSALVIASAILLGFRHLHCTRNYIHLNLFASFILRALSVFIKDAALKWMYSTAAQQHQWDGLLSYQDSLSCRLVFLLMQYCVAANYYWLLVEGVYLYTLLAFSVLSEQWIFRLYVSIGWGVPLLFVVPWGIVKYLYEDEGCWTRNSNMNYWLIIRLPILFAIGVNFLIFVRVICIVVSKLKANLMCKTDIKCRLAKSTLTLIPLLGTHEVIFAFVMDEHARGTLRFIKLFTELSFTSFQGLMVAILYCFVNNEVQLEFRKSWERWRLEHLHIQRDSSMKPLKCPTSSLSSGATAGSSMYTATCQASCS
Kind of data set: hGLP-1R agonist cAMP stimulation assay. The conditions noted are these: Flp-In-293-GLP1R cells, 30 minutes at 37° C. The class given is cell-based. The protocol: 1. Cell Line and Reagent Preparation
• 1) Cell line: Flp-In-293-GLP1R • 2) Medium: DMEM+10% FBS+1×Penicillin-Streptomycin+200 μg/mL HB • 3) Test buffer: 1×HBSS+20 mM HEPES+0.1% BSA+500 μM IBMX 2. Agonist Test • a) Flpin-293-GLP1R cells were incubated in a 384-well assay plate (6007680-50, PB) using a complete medium with 2,000 cells per well. • b) Prepared a 4× […] working solution with assay buffer. • c) Added 5 μL of 4× Compound Working Solution to the cell plate and incubated at 37° C. for 30 minutes. • d) Diluted the Eu-cAMP tracer (1/50) with lysis buffer and added 10 μl/well to the assay plate. • e) Diluted Ulight-anti-cAMP (1/150) with lysis buffer and added 10 μl/well to the assay plate. • f) The assay plate was incubated at constant temperature for 1 hour. • g) Read the plate on Envision 2105 plate reader at […]. 3.

Data set [1] in a line: Single-dose oral administration pharmacokinetic study in SD rats. The data set is classed as in vivo. Particulars: Sprague-Dawley, rat, whole blood, 5 mg/kg; for AUC(0-t): read-out: AUC0-48h. The protocol: 2. Single-Dose Oral Administration Pharmacokinetic (PK) Studies in Sprague-Dawley (SD) Rats
Pharmacokinetic (PK) studies after a single-dose oral administration for compounds. Protocol: Animals: Sprague-Dawley (SD) rats; Solvent: Solutol: PEG400: Tween80: Saline=10:40:2:48 (v/v/v/v); Dose: 5 mg/kg; Dosing concentration: 0.5 mg/mL in the solvent; Dosing volume: 10 mL/kg; Blood sampling time points: pre-dose, 0.25 h, 0.5 h, 1 h, 2 h, 3 h, 4 h, 8 h, 12 h, 18, 24 h, 32 h, 40 h, 48 h. Sample Collection: At each time point, approximately 0.15 mL of blood was drawn from the jugular vein sinus, and the collected whole blood was placed in an anticoagulant tube containing EDTA-K2. After collecting blood samples, they were processed with protein precipitation and then analyzed by LC-MS/MS.

The nature of data set [2]: Single-dose subcutaneous injection pharmacokinetic study in SD rats. The class given is in vivo. The conditions noted are these: Sprague-Dawley, rat, blood, sc, male SD rats, 30 mg/kg, vehicle 80% MCT + 20% benzyl alcohol, read-out: AUC0-696h. The protocol:
Pharmacokinetic Studies in Sprague-Dawley (SD) Rats
1. Single-Dose Subcutaneous Injection Pharmacokinetic Studies Sprague-Dawley (SD) Rats
Pharmacokinetic (PK) studies after a single-dose subcutaneous injection for compounds: 1, 13, 18, 19, 20, 21 and orforglipron. Protocol: Animals: Male Sprague-Dawley (SD) rats; Vehicle: 80% MCT (Medium-Chain Triglycerides)+20% benzyl alcohol; Dose: 30 mg/kg in the vehicle; Dosing concentration: 30 mg/mL; Dosing volume: 1 mL/kg; Administration site: Subcutaneous injection at the back of the animal. Blood sampling time points: pre-dose, 1 h, 2 h, 8 h, 24 h, 48 h, 72 h, 96 h, 120 h, 144 h, 216 h, 312 h, 480 h, 696 h. Blood samples were collected, and the blood samples were analyzed by LC-MS/MS.

In turn, `Cc1cc(-n2nc3c(c2-n2ccn(-c4ccc5c(cnn5C5CC5)c4F)c2=O)[C@H](C)N(C(=O)c2cc4nc(C5CCOCC5)ccc4n2[C@@]2(c4noc(=O)[nH]4)C[C@@H]2C)CC3)cc(C)c1F` (single isomer, unassigned) [Compound 19] displayed a 50% effective concentration (EC50) on hGLP-1R of 0.012 nM. This compound yielded a Cmax in data set [1] of 4460 ng/mL. For the same compound, the values for the AUC(0-t) in data set [1] and in data set [2] were 60000 ng·h/mL and 234000 ng·h/mL, respectively. `Cc1cc(-n2nc3c(c2-n2ccn(-c4ccc5c(cnn5C5CC5)c4F)c2=O)[C@H](C)N(C(=O)c2cc4cc([C@H]5CCOC(C)(C)C5)ccc4n2[C@@]2(c4noc(=O)[nH]4)C[C@@H]2C)CC3)cc(C)c1F` [Compound 1]: at hGLP-1R, the EC50 was found to be 0.094 nM. The AUC(0-t) in data set [2] was found to be 60300 ng·h/mL. The matching figures for `Cc1cc(-n2nc3c(c2-n2ccn(-c4ccc5c(cnn5CC5CC5)c4F)c2=O)[C@H](C)N(C(=O)c2cc4cc(C5CCOC(C)(C)C5)ccc4n2[C@@]2(c4noc(=O)[nH]4)C[C@@H]2C)CC3)cc(C)c1F` (stereo partly drawn) [Compound 13]: 0.228 nM and 23400 ng·h/mL. On hGLP-1R, `Cc1cc(-n2nc3c(c2-n2ccn(-c4ccc5c(cnn5CC5CC5)c4F)c2=O)[C@H](C)N(C(=O)c2cc4cc([C@@H]5CCOC(C)(C)C5)ccc4n2[C@@]2(c4noc(=O)[nH]4)C[C@@H]2C)CC3)cc(C)c1F` [Compound 18] had a 50% effective concentration (EC50) of 0.265 nM. The AUC(0-t) in data set [2] is 51200 ng·h/mL. The compound `Cc1cc(-n2nc3c(c2-n2ccn(-c4ccc5c(cnn5C5CCC5)c4F)c2=O)[C@H](C)N(C(=O)c2cc4cc(C5CCOCC5)ccc4n2[C@@]2(c4noc(=O)[nH]4)C[C@@H]2C)CC3)cc(C)c1F` [Compound 20] showed a 50% effective concentration (EC50) at hGLP-1R of 0.018 nM. In data set [1], this compound had a maximum concentration (Cmax) of 1900 ng/mL. The AUC(0-t) in data set [1] worked out at 17000 ng·h/mL; in data set [2], 77700 ng·h/mL. With `Cc1cc(-n2nc3c(c2-n2ccn(-c4ccc5c(cnn5CC5CC5)c4F)c2=O)[C@H](C)N(C(=O)c2cc4cc(C5CCOCC5)ccc4n2[C@@]2(c4noc(=O)[nH]4)C[C@@H]2C)CC3)cc(C)c1F` [Compound 21], the response on hGLP-1R was half-maximal at 0.044 nM (EC50). The AUC(0-t) in data set [2] was determined as 61500 ng·h/mL. Take `Cc1cc(-n2nc3c(c2-n2ccn(-c4ccc(NS(C)(=O)=O)cc4)c2=O)C2CCC(C3)N2C(=O)c2cc3nc(C4CCOCC4)ccc3n2[C@@]2(c3noc(=O)[nH]3)C[C@@H]2C)cc(C)c1F` (stereo partly drawn) [Compound 24]: at hGLP-1R, the EC50 was determined as 0.868 nM. Same read-out and setting: under `Cc1cc(-n2nc3c(c2-n2ccn(-c4ccc5c(c4F)COB5O)c2=O)[C@H](C)N(C(=O)c2cc4cc(C5CCOC(C)(C)C5)ccc4n2[C@@]2(c4noc(=O)[nH]4)C[C@@H]2C)CC3)cc(C)c1F` (stereo partly drawn) [Compound 29] stands 0.063 nM. Still for that read-out and setting: under `Cc1cc(-n2nc3c(c2-n2ccn(-c4ccc5c(c4F)CCS(=O)(=O)N5C)c2=O)[C@H](C)N(C(=O)c2cc4cc(C5CCOCC5)ccc4n2[C@@]2(c4noc(=O)[nH]4)C[C@@H]2C)CC3)cc(C)c1F` [Compound 35] stands 0.025 nM; under `Cc1cc(-n2nc3c(c2-n2ccn(-c4ccc5c(c4F)CCS(=O)(=O)N5)c2=O)[C@H](C)N(C(=O)c2cc4cc(C5CCOCC5)ccc4n2[C@@]2(c4noc(=O)[nH]4)C[C@@H]2C)CC3)cc(C)c1F` [Compound 36], 0.05 nM; under `Cc1cc(-n2nc3c(c2-n2ccn(-c4ccc5c(c4F)CS(=O)(=O)N5)c2=O)[C@H](C)N(C(=O)c2cc4cc(C5CCOCC5)ccc4n2[C@@]2(c4noc(=O)[nH]4)C[C@@H]2C)CC3)cc(C)c1F` [Compound 37], 0.06 nM. The compound `Cc1cc(-n2nc3c(c2-n2ccn(-c4ccc(CP(C)(C)=O)cc4)c2=O)[C@H](C)N(C(=O)c2cc4cc(C5CCOCC5)ccc4n2[C@@]2(c4noc(=O)[nH]4)C[C@@H]2C)CC3)cc(C)c1F` [Compound 50] had an EC50 on hGLP-1R of 0.028 nM. At hGLP-1R, `Cc1cc(-n2nc3c(c2-n2ccn(-c4ccc5c(c4)NCCS5(=O)=O)c2=O)[C@H](C)N(C(=O)c2cc4cc(C5CCOCC5)ccc4n2[C@@]2(c4noc(=O)[nH]4)C[C@@H]2C)CC3)cc(C)c1F` [Compound 55] had an EC50 of 0.15 nM. Turning to `Cc1cc(-n2nc3c(c2-n2ccn(-c4ccc5c(cnn5C5CC5)c4F)c2=O)[C@H](C)N(C(=O)c2cc4nc(C5CCOCC5)ccc4n2[C@@]2(c4noc(=O)[nH]4)C[C@@H]2C)CC3)cc(C)c1F` [Compound 65], the midpoint of the response on hGLP-1R, the EC50, lay at 0.092 nM. In addition, in data set [1], the peak level (Cmax) was 11000 ng/mL and the AUC(0-t) turned out to be 71800 ng·h/mL.

In the case of `Cc1cc(-n2nc3c(c2-n2ccn(-c4ccc5c(cnn5C5CC5)c4F)c2=O)[C@H](C)N(C(=O)c2cc4cc(C5CCOCC5)ncc4n2[C@@]2(c4noc(=O)[nH]4)C[C@@H]2C)CC3)cc(C)c1F` [Compound 66], it took 0.014 nM to reach a half-maximal effect at hGLP-1R (EC50).

Consider `Cc1cc(-n2nc3c(c2-n2ccn(-c4ccc5c(cnn5C5CC5)c4F)c2=O)[C@H](C)N(C(=O)c2cc4cc(C5CCOCC5)cnc4n2[C@@]2(c4noc(=O)[nH]4)C[C@@H]2C)CC3)cc(C)c1F` [Compound 70], for which the 50% effective concentration (EC50) at hGLP-1R was determined as 0.064 nM. Consider `Cc1cc(-n2nc3c(c2-n2ccn(-c4ccc5c(c4)CS(=O)(=O)N5C)c2=O)[C@H](C)N(C(=O)c2cc4cc(C5CCOCC5)ccc4n2[C@@]2(c4noc(=O)[nH]4)C[C@@H]2C)CC3)cc(C)c1F` [Compound 76], for which, at hGLP-1R, the response was half-maximal at 0.019 nM (EC50). Regarding `Cc1cc(-n2nc3c(c2-n2ccn(-c4ccc5c(c4)oc(=O)n5C)c2=O)[C@H](C)N(C(=O)c2cc4cc(C5CCOCC5)ccc4n2[C@@]2(c4noc(=O)[nH]4)C[C@@H]2C)CC3)cc(C)c1F` [Compound 77], the concentration for a half-maximal effect (EC50) on hGLP-1R amounted to 0.022 nM. `Cc1cc(-n2nc3c(c2-n2ccn(-c4ccc5c(c4)CCC(=O)N5C)c2=O)[C@H](C)N(C(=O)c2cc4cc(C5CCOCC5)ccc4n2[C@@]2(c4noc(=O)[nH]4)C[C@@H]2C)CC3)cc(C)c1F` [Compound 78] had a concentration giving a half-maximal response (EC50) at hGLP-1R of 0.012 nM. Still for that read-out and setting: the same measure for `Cc1cc(-n2nc3c(c2-n2ccn(-c4ccc5c(c4F)COB5O)c2=O)[C@H](C)N(C(=O)c2cc4cc(C5CCOCC5)ccc4n2[C@@]2(c4noc(=O)[nH]4)C[C@@H]2C)CC3)cc(C)c1F` [Compound 79]: 0.171 nM; for `CCP(=O)(CC)Cc1ccc(-n2ccn(-c3c4c(nn3-c3cc(C)c(F)c(C)c3)CCN(C(=O)c3cc5cc(C6CCOCC6)ccc5n3[C@@]3(c5noc(=O)[nH]5)C[C@@H]3C)[C@H]4C)c2=O)cc1` [Compound 80]: 0.038 nM; for `Cc1cc(-n2nc3c(c2-n2ccn(-c4ccc(CP(=O)(C5CC5)C5CC5)cc4)c2=O)[C@H](C)N(C(=O)c2cc4cc(C5CCOCC5)ccc4n2[C@@]2(c4noc(=O)[nH]4)C[C@@H]2C)CC3)cc(C)c1F` [Compound 81]: 0.042 nM. Regarding `Cc1cc(-n2nc3c(c2-n2ccn(-c4ccc(CP5(=O)CCCC5)cc4)c2=O)[C@H](C)N(C(=O)c2cc4cc(C5CCOCC5)ccc4n2[C@@]2(c4noc(=O)[nH]4)C[C@@H]2C)CC3)cc(C)c1F` [Compound 82], the concentration giving a half-maximal response (EC50) at hGLP-1R turned out to be 0.011 nM.

Consider `CCOP(=O)(Cc1ccc(-n2ccn(-c3c4c(nn3-c3cc(C)c(F)c(C)c3)CCN(C(=O)c3cc5cc(C6CCOCC6)ccc5n3[C@@]3(c5noc(=O)[nH]5)C[C@@H]3C)[C@H]4C)c2=O)cc1)OCC` [Compound 84], for which the EC50 on hGLP-1R turned out to be 0.08 nM. Compound `Cc1cc(-n2nc3c(c2-n2ccn(-c4ccc5c(cnn5C)c4F)c2=O)[C@H](C)N(C(=O)c2cc4cc([C@H]5CCOC(C)(C)C5)ccc4n2[C@@]2(c4noc(=O)[nH]4)C[C@@H]2C)CC3)cc(C)c1F` [Orforglipron, orforglipron, reference compound] showed a Cmax in data set [1] of 799 ng/mL. For the same compound, the AUC(0-t) in data set [1] came out at 7220 ng·h/mL; in data set [2], 5390 ng·h/mL.
